Data from paper PMC8120209, “Longitudinal evaluation of a novel BChE PET tracer as an early in vivo biomarker in the brain of a mouse model for Alzheimer disease” (Theranostics, 2021).

Assays:
Design in all cases: Eurofins SafetyScreen44 radioligand displacement, inhibition of control specific binding
[1] = target: T1, adrenergic receptor α1A (Homo sapiens, UniProt P35348); conditions: reference compound; binder
T1 construct: gene ADRA1A
T1 sequence (P35348 1-466): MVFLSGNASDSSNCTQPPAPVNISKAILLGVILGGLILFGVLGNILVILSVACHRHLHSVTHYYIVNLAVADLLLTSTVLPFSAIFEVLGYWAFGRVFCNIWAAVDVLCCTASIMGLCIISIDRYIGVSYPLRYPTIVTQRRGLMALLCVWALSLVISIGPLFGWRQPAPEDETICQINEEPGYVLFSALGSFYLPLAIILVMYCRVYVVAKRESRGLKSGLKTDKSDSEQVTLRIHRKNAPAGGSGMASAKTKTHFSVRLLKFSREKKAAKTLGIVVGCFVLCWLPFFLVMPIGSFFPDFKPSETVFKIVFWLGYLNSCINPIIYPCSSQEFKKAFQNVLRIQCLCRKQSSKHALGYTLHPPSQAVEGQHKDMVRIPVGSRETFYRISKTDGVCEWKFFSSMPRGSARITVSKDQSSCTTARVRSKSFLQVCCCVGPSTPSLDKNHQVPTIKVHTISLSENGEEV

[2] = target: T1, adrenergic receptor α1A; conditions: reference compound; binder; remark: listed apart in the source
[3] = target: T2, 5-HT2B(h) (Homo sapiens, UniProt P41595); assay: biochemical; conditions: reference compound
T2 construct: gene HTR2B

[4] = target: T3, N neuronal α7 (h) (Homo sapiens, UniProt P36544); conditions: reference compound; binder
T3 construct: gene CHRNA7

[5] = target: T3, N neuronal α7 (h); conditions: reference compound; binder; remark: listed apart in the source
[6] = target: T4, M5(h) (Homo sapiens, UniProt P08912); assay: biochemical; conditions: reference compound
T4 construct: gene CHRM5
T4 sequence (P08912 whole entry): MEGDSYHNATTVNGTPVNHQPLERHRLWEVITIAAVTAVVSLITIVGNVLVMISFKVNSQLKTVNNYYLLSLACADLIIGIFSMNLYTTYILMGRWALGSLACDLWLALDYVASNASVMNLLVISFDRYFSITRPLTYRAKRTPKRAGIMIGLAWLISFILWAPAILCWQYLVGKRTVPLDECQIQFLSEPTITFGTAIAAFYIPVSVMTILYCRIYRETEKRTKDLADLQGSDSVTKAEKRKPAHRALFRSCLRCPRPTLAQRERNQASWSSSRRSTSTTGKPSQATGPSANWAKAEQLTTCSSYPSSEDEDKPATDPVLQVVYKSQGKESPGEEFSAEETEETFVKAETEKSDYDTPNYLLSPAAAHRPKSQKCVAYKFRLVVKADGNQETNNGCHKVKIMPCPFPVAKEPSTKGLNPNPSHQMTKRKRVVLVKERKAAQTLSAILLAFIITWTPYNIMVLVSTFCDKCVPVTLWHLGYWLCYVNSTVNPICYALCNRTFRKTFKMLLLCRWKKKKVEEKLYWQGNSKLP

T3 sequence (P36544 whole entry): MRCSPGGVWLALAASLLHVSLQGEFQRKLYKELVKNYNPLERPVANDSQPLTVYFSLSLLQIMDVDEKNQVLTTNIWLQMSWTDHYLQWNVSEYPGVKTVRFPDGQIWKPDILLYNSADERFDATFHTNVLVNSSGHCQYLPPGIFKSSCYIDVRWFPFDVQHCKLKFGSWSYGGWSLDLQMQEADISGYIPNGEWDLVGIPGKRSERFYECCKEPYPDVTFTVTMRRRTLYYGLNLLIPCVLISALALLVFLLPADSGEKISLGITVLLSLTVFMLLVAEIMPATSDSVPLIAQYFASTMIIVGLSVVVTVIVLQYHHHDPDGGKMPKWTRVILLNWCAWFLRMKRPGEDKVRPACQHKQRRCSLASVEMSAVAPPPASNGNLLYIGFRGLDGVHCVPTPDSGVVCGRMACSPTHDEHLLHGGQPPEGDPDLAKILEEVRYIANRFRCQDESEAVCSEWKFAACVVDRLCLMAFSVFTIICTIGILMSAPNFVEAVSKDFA
T2 sequence (P41595 whole entry): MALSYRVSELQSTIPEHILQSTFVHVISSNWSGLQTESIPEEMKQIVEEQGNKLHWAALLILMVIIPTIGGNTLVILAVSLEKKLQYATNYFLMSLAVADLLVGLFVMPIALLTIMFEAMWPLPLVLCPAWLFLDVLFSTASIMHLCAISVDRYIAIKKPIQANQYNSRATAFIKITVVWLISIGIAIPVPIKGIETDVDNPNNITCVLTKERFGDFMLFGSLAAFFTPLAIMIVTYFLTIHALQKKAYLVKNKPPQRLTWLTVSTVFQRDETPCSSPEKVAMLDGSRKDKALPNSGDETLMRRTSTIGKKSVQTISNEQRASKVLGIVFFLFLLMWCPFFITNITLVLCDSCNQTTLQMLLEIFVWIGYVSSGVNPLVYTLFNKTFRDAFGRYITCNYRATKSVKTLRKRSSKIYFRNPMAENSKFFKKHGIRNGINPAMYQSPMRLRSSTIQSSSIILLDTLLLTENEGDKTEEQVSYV

## COc1cccc(OC)c1OCCNCC1COc2ccccc2O1 (stereo not drawn) [WB 4101]
[1]
  IC50: 0.61 nM
[2]
  Ki: 0.3 nM

## COc1cc(CC(C)N)c(OC)cc1I (racemic) [(±)DOI]
[3]
  Ki: 1.8 nM

## Clc1ccc(C2CC3CCC2N3)cn1 (racemic) [(±)epibatidine]
[4]
  IC50: 86 nM
[5]
  Ki: 75 nM

## C[N+]1(C)CCC(OC(=O)C(c2ccccc2)c2ccccc2)CC1 [4-DAMP]
[6]
  Ki: 0.5 nM
